{"source": "patent US20240148709A1", "about": "“METHODS OF TREATING EYE PAIN AND EYE DISORDERS” (Aisa Pharma, Inc., priority 2022, published 2024)", "system": "participants with SSc-RP", "test": "Scleroderma Health Assessment Questionnaire (SHAQ), Phase 2a study Part A", "type": "in vivo, human", "conditions": "cilnidipine 10 mg and/or tadalafil 5 mg arms", "description": "Part A—double-blind, placebo-controlled, parallel-group, dose selection, will assess the safety and efficacy of two doses of cilnidipine (10 mg and 20 mg), alone and in combination with tadalafil. A total of 36 participants will be randomized to one of six prespecified treatment arms. Refer to FIG. 1 for treatment arms in Part A of the study. Dosing last for 12 (±2) days in which participants will self-administer daily doses of assigned treatment in the morning. Each participant will take one capsule and one tablet to blind the active therapy being received.\nThe standard, validated, patient reported outcome measures tool for SSc patients, the SHAQ, will be collected at the time points specified in the study schedules (FIG. 2 and FIGS. 3A and 3B) to assess the participant's quality of life. The SHAQ includes a Raynaud's VAS that will also be reported separately.\nResults: Patients in the study were administered the Scleroderma Health Assessment Questionnaire (SHAQ) at the time of study entry and during clinic visits following the treatment period. The study is a two-part, parallel arm design, prospective, double-blind, randomized study conducted in Australia (Flinders Medical Center). 27 patients were randomized into the first phase of the study, following which a DSMB meeting was held, which reviewed data on the primary study endpoint and key Raynaud's secondary endpoints. Data on the SHAQ was not available for the DSMB to review. The mITT population, in which any data was available post treatment was 24 patients was the analysis population for this first part of the study. The second part (i.e., part B) of the study will randomize 36 patients in a double blind, randomized, prospective, placebo controlled, crossover study. In the first part (i.e., Part A) of the study for which data is presented, patients were randomized into 6 groups, cilnidipine at two doses (10 and 20 mg) alone and in combination with tadalafil 5 mg, tadalafil 5 mg alone, and placebo. […] The DSMB recommended that the study proceed into its double blind prospective cross overpowered second phase and compare cilnidipine 20 mg alone to placebo."}
{"compound": "CN1CC(=O)N2[C@H](c3ccc4c(c3)OCO4)c3[nH]c4ccccc4c3C[C@@H]2C1=O", "note": "[Tadalafil, tadalafil]", "values": [{"measurement": "SHAQ Finger Ulcers, Change from Baseline, Max", "result": 1.00}, {"measurement": "SHAQ Finger Ulcers, Change from Baseline, Mean (SD)", "result": "0.250 (0.5000)"}, {"measurement": "SHAQ Finger Ulcers, Change from Baseline, Median", "result": 0.000}, {"measurement": "SHAQ Finger Ulcers, Change from Baseline, Min", "result": 0.00}, {"measurement": "SHAQ Finger Ulcers, Change from Baseline, Q1", "result": 0.000}, {"measurement": "SHAQ Finger Ulcers, Change from Baseline, Q3", "result": 0.500}, {"measurement": "SHAQ Finger Ulcers, In Clinic Visit (Day 12), Max", "result": 9.20}, {"measurement": "SHAQ Finger Ulcers, In Clinic Visit (Day 12), Mean (SD)", "result": "2.325 (4.5836)"}, {"measurement": "SHAQ Finger Ulcers, In Clinic Visit (Day 12), Median", "result": 0.050}, {"measurement": "SHAQ Finger Ulcers, In Clinic Visit (Day 12), Min", "result": 0.00}, {"measurement": "SHAQ Finger Ulcers, In Clinic Visit (Day 12), Q1", "result": 0.000}, {"measurement": "SHAQ Finger Ulcers, In Clinic Visit (Day 12), Q3", "result": 4.650}, {"measurement": "SHAQ Finger Ulcers, Percent Change from Baseline, Max", "result": 12.2, "unit": "%"}, {"measurement": "SHAQ Finger Ulcers, Percent Change from Baseline, Mean (SD)", "result": "6.10 (8.623) %"}, {"measurement": "SHAQ Finger Ulcers, Percent Change from Baseline, Median", "result": 6.10, "unit": "%"}, {"measurement": "SHAQ Finger Ulcers, Percent Change from Baseline, Min", "result": 0.0, "unit": "%"}, {"measurement": "SHAQ Finger Ulcers, Percent Change from Baseline, Q1", "result": 0.00, "unit": "%"}, {"measurement": "SHAQ Finger Ulcers, Percent Change from Baseline, Q3", "result": 12.20, "unit": "%"}, {"measurement": "SHAQ Overall Change in Severity, Change from Baseline, Max", "result": 2.40}, {"measurement": "SHAQ Overall Change in Severity, Change from Baseline, Median", "result": 0.700}, {"measurement": "SHAQ Overall Change in Severity, Change from Baseline, Min", "result": "−1.30"}, {"measurement": "SHAQ Overall Change in Severity, Change from Baseline, Q1", "result": "−0.600"}, {"measurement": "SHAQ Overall Change in Severity, Change from Baseline, Q3", "result": 1.850}, {"measurement": "SHAQ Overall Change in Severity, In Clinic Visit (Day 12), Max", "result": 9.10}, {"measurement": "SHAQ Overall Change in Severity, In Clinic Visit (Day 12), Mean (SD)", "result": "5.600 (4.2528)"}, {"measurement": "SHAQ Overall Change in Severity, In Clinic Visit (Day 12), Median", "result": 6.550}, {"measurement": "SHAQ Overall Change in Severity, In Clinic Visit (Day 12), Min", "result": 0.20}, {"measurement": "SHAQ Overall Change in Severity, In Clinic Visit (Day 12), Q1", "result": 2.200}, {"measurement": "SHAQ Overall Change in Severity, In Clinic Visit (Day 12), Q3", "result": 9.000}, {"measurement": "SHAQ Overall Change in Severity, Percent Change from Baseline, Max", "result": 100.0, "unit": "%"}, {"measurement": "SHAQ Overall Change in Severity, Percent Change from Baseline, Mean (SD)", "result": "32.49 (51.568) %"}, {"measurement": "SHAQ Overall Change in Severity, Percent Change from Baseline, Median", "result": 26.790, "unit": "%"}, {"measurement": "SHAQ Overall Change in Severity, Percent Change from Baseline, Min", "result": "−23.6", "unit": "%"}, {"measurement": "SHAQ Overall Change in Severity, Percent Change from Baseline, Q1", "result": "−3.48", "unit": "%"}, {"measurement": "SHAQ Overall Change in Severity, Percent Change from Baseline, Q3", "result": 68.46, "unit": "%"}, {"measurement": "SHAQ Standard disability index, Change from Baseline, Max", "result": 0.00}, {"measurement": "SHAQ Standard disability index, Change from Baseline, Mean (SD)", "result": "−0.063 (0.0722)"}, {"measurement": "SHAQ Standard disability index, Change from Baseline, Median", "result": "−0.063"}, {"measurement": "SHAQ Standard disability index, Change from Baseline, Min", "result": "−0.13"}, {"measurement": "SHAQ Standard disability index, Change from Baseline, Q1", "result": "−0.125"}, {"measurement": "SHAQ Standard disability index, Change from Baseline, Q3", "result": 0.000}, {"measurement": "SHAQ Standard disability index, In Clinic Visit (Day 12), Max", "result": 1.00}, {"measurement": "SHAQ Standard disability index, In Clinic Visit (Day 12), Mean (SD)", "result": "0.531 (0.4130)"}, {"measurement": "SHAQ Standard disability index, In Clinic Visit (Day 12), Median", "result": 0.563}, {"measurement": "SHAQ Standard disability index, In Clinic Visit (Day 12), Min", "result": 0.00}, {"measurement": "SHAQ Standard disability index, In Clinic Visit (Day 12), Q1", "result": 0.250}, {"measurement": "SHAQ Standard disability index, In Clinic Visit (Day 12), Q3", "result": 0.813}, {"measurement": "SHAQ Standard disability index, Percent Change from Baseline, Max", "result": 0.0, "unit": "%"}, {"measurement": "SHAQ Standard disability index, Percent Change from Baseline, Mean (SD)", "result": "−9.26 (8.486) %"}, {"measurement": "SHAQ Standard disability index, Percent Change from Baseline, Median", "result": "−11.11", "unit": "%"}, {"measurement": "SHAQ Standard disability index, Percent Change from Baseline, Min", "result": "−16.7", "unit": "%"}, {"measurement": "SHAQ Standard disability index, Percent Change from Baseline, Q1", "result": "−16.67", "unit": "%"}, {"measurement": "SHAQ Standard disability index, Percent Change from Baseline, Q3", "result": 0.00, "unit": "%"}, {"measurement": "SHAQ Visual Analog Scale-Breathing Problems, Change from Baseline, Max", "result": 2.80}, {"measurement": "SHAQ Visual Analog Scale-Breathing Problems, Change from Baseline, Mean (SD)", "result": "0.500 (2.5599)"}, {"measurement": "SHAQ Visual Analog Scale-Breathing Problems, Change from Baseline, Median", "result": 1.050}, {"measurement": "SHAQ Visual Analog Scale-Breathing Problems, Change from Baseline, Min", "result": "−2.90"}, {"measurement": "SHAQ Visual Analog Scale-Breathing Problems, Change from Baseline, Q1", "result": "−1.450"}, {"measurement": "SHAQ Visual Analog Scale-Breathing Problems, Change from Baseline, Q3", "result": 2.450}, {"measurement": "SHAQ Visual Analog Scale-Breathing Problems, In Clinic Visit (Day 12), Max", "result": 9.20}, {"measurement": "SHAQ Visual Analog Scale-Breathing Problems, In Clinic Visit (Day 12), Mean (SD)", "result": "4.300 (4.8840)"}, {"measurement": "SHAQ Visual Analog Scale-Breathing Problems, In Clinic Visit (Day 12), Median", "result": 4.000}, {"measurement": "SHAQ Visual Analog Scale-Breathing Problems, In Clinic Visit (Day 12), Min", "result": 0.00}, {"measurement": "SHAQ Visual Analog Scale-Breathing Problems, In Clinic Visit (Day 12), Q1", "result": 0.100}, {"measurement": "SHAQ Visual Analog Scale-Breathing Problems, In Clinic Visit (Day 12), Q3", "result": 8.500}, {"measurement": "SHAQ Visual Analog Scale-Breathing Problems, Percent Change from Baseline, Max", "result": 56.0, "unit": "%"}, {"measurement": "SHAQ Visual Analog Scale-Breathing Problems, Percent Change from Baseline, Mean (SD)", "result": "−2.66 (79.815) %"}, {"measurement": "SHAQ Visual Analog Scale-Breathing Problems, Percent Change from Baseline, Median", "result": 29.58, "unit": "%"}, {"measurement": "SHAQ Visual Analog Scale-Breathing Problems, Percent Change from Baseline, Min", "result": "−93.5", "unit": "%"}, {"measurement": "SHAQ Visual Analog Scale-Breathing Problems, Percent Change from Baseline, Q1", "result": "−93.55", "unit": "%"}, {"measurement": "SHAQ Visual Analog Scale-Breathing Problems, Percent Change from Baseline, Q3", "result": 56.00, "unit": "%"}]}
